What was measured:
[1] = target: T1, human eIF4E protein (Homo sapiens, UniProt P06730); test: Biochemical competitive binding assay (TR-FRET competition, EDA-m7GDP-ATTO-647N probe); settings: read-out: hEIF4E TR-FRET IC50
T1 construct: purchased Novus NBP-45314
In short: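 IC50 values come from 4-parameter fits of the normalized 665/620 nm TR-FRET ratio. Compound was first incubated 15 min with 4 nM recombinant His-eIF4E bound to 2.5 nM Eu-anti-His antibody, then 15 min with 5 nM m7GDP-ATTO-647N tracer, in pH 7.5 HEPES buffer with 100 mM KCl, Tween-20 and BSA.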

[2] = test system: COLO 205 colorectal tumor cells; test: Tumor cell viability inhibition assay (CellTiter-Glo 2.0, 72 hours); format: cell-based; settings: Homo sapiens, COLO 205, 72 h, COLO 205 cell viability
In short: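 IC50 derived by 4-parameter fitting after normalizing luminescence to DMSO and max-inhibition wells. Compounds tested as 11 concentrations in 4-fold steps on COLO 205 cells seeded at 1500 per well in RPMI-1640/10% FBS; ATP content measured with CellTiter-Glo 2.0 after 72 h.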

[3] = test system: cyclin D1 protein levels in COLO 205 cells; test: Cyclin D1 cellular inhibition assay (HTRF, 6 hours); format: cell-based; settings: Homo sapiens, COLO 205, 6 h, 6 hours of compound treatment, Cyclin D1 protein levels by HTRF, read-out: COLO 205 6 h Cyclin D1 TR-FRET IC50
Experimental: The effect of compound treatment on cyclin D1 protein levels in COLO 205 cells was assessed, as follows. Test compound plates were prepared with a Tecan D300e Digital Dispenser as 11-point concentration-response curves with a final DMSO concentration of 1%. COLO 205 (ATCC, CCL-222) colorectal tumor cells were seeded to assay-ready plates in RPMI-1640 medium supplemented with 10% FBS at 20,000 cells in a volume of 6 microliters per well. After 6 hours of compound treatment, cells were lysed and Cyclin D1 protein levels were assessed by an HTRF assay (PerkinElmer #64CYCD1ITPEG), according to the manufacturer's protocol. Time-resolved fluorescence was measured using a Clariostar Plus microplate reader (BMG Labtech) or equivalent. After normalization to the average of DMSO control and maximum inhibition control wells, concentration-response data were plotted and standard 4-parameter curve fitting (GraphPad Prism v9.4.1) was utilized to determine IC50 values.

[4] = test system: cap-dependent translation in Flp-In-293 reporter cells; test: Cellular cap-dependent translation inhibition assay (dual luciferase assay, DLA; Fluc/Rluc ratio, 24 hours); format: cell-based; settings: Homo sapiens, Flp-In-293, 24 h, dual luciferase assay, Flp-In-293 reporter cells, 24 hours, Fluc/Rluc ratio; read-out: DLA 205 IC50

T1 sequence (P06730 whole entry): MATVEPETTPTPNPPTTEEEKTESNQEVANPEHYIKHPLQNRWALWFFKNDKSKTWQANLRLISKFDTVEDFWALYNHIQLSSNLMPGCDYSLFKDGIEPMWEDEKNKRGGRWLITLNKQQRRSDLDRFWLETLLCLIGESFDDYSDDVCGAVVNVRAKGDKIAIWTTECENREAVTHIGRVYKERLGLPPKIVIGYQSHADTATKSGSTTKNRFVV

Cc1cc(-c2cc(Cl)ccc2OCCn2c(C)nc3c(c2=O)C[C@H](N(C)C[C@H]2C[C@](C)(O)C2)CC3)c2scc(C(=O)O)c2n1 (relative stereo) [Compound 210]
IC50 [1]: < 0.1 µM | IC50 [2]: > 20 µM | IC50 [3]: > 20 µM

Cc1cc(-c2cc(Cl)ccc2OCCn2c(C)nc3c(c2=O)C[C@H](N2CCC[C@@]4(C2)CC4(F)F)CC3)c2scc(C(=O)O)c2n1 (single isomer, unassigned) [Compound 139]
IC50 [1]: < 0.1 µM | IC50 [2]: < 5 µM | IC50 [3]: < 5 µM

Cc1cc(-c2cc(Cl)ccc2OCCn2c(C)nc3c(c2=O)C[C@@H](N2CCC[C@]4(C2)CC4(F)F)CC3)c2scc(C(=O)O)c2n1 (single isomer, unassigned) [Compound 140]
IC50 [1]: < 0.1 µM | IC50 [2]: < 5 µM | IC50 [3]: < 5 µM

Cc1cc(-c2cc(Cl)ccc2OCCn2c(C)nc3c(c2=O)C[C@@H](N2CCC[C@@]4(C2)CC4(F)F)CC3)c2scc(C(=O)O)c2n1 (single isomer, unassigned) [Compound 141]
IC50 [1]: < 0.1 µM | IC50 [2]: < 5 µM | IC50 [3]: < 5 µM

Cc1cc(-c2cc(Cl)ccc2OCCn2c(C)nc3c(c2=O)C[C@H](N2C[C@@H]4CC(F)(F)[C@@H]4C2)CC3)c2scc(C(=O)O)c2n1 (single isomer, unassigned) [Compound 146]
IC50 [1]: < 0.1 µM | IC50 [2]: < 5 µM | IC50 [3]: < 5 µM

Cc1cc(-c2cc(Cl)ccc2OCCn2c(C)nc3c(c2=O)C[C@H](N2C[C@H]4CC(F)(F)[C@H]4C2)CC3)c2scc(C(=O)O)c2n1 (single isomer, unassigned) [Compound 147]
IC50 [1]: < 0.1 µM | IC50 [2]: < 5 µM | IC50 [3]: < 5 µM

Cc1cc(-c2cc(Cl)ccc2OCCn2c(C)nc3c(c2=O)C[C@@H](N2C[C@H]4CC(F)(F)[C@H]4C2)CC3)c2scc(C(=O)O)c2n1 (single isomer, unassigned) [Compound 148]
IC50 [1]: < 0.1 µM | IC50 [2]: < 5 µM | IC50 [3]: < 5 µM

Cc1cc(-c2cc(Cl)ccc2OCCn2c(C)nc3c(c2=O)C[C@@H](N2C[C@@H]4CC(F)(F)[C@@H]4C2)CC3)c2scc(C(=O)O)c2n1 (single isomer, unassigned) [Compound 149]
IC50 [1]: < 0.1 µM | IC50 [2]: < 5 µM | IC50 [3]: < 5 µM

Cc1cc(-c2cc(Cl)ccc2OCCn2c(C)nc3c(c2=O)C[C@H](N2C[C@H]4CCC(F)(F)[C@H]4C2)CC3)c2scc(C(=O)O)c2n1 (single isomer, unassigned) [Compound 166]
IC50 [1]: < 0.1 µM | IC50 [2]: < 5 µM | IC50 [3]: < 5 µM

Cc1cc(-c2cc(Cl)ccc2OCCn2c(C)nc3c(c2=O)C[C@H](N2C[C@@H]4CCC(F)(F)[C@@H]4C2)CC3)c2scc(C(=O)O)c2n1 (single isomer, unassigned) [Compound 167]
IC50 [1]: < 0.1 µM | IC50 [2]: < 5 µM | IC50 [3]: < 5 µM

Cc1cc(-c2cc(Cl)ccc2OCCn2c(C)nc3c(c2=O)C[C@@H](N2C[C@H]4CCC(F)(F)[C@H]4C2)CC3)c2scc(C(=O)O)c2n1 (single isomer, unassigned) [Compound 168]
IC50 [1]: < 0.1 µM | IC50 [2]: < 5 µM | IC50 [3]: < 5 µM

Cc1cc(-c2cc(Cl)ccc2OCCn2c(C)nc3c(c2=O)C[C@@H](N2C[C@@H]4CCC(F)(F)[C@@H]4C2)CC3)c2scc(C(=O)O)c2n1 (single isomer, unassigned) [Compound 169]
IC50 [1]: < 0.1 µM | IC50 [2]: < 5 µM | IC50 [3]: < 5 µM

Cc1cc(-c2cc(Cl)ccc2OCCn2c(C)nc3c(c2=O)C[C@H](N(C)[C@H]2CC[C@@](C)(O)C2)CC3)c2scc(C(=O)O)c2n1 (single isomer, unassigned) [Compound 183]
IC50 [1]: < 0.1 µM | IC50 [2]: > 20 µM | IC50 [3]: > 20 µM

Cc1cc(-c2cc(Cl)ccc2OCCn2c(C)nc3c(c2=O)C[C@@H](N(C)[C@H]2CC[C@](C)(O)CC2)CC3)c2scc(C(=O)NS(C)(=O)=O)c2n1 (single isomer, unassigned) [Compound 206]
IC50 [1]: < 0.1 µM | IC50 [2]: > 20 µM | IC50 [3]: > 20 µM

Cc1cc(-c2cc(Cl)ccc2OCCn2c(C)nc3c(c2=O)C[C@H](N(C)[C@H]2CC[C@](C)(O)CC2)CC3)c2scc(C(=O)NS(C)(=O)=O)c2n1 (single isomer, unassigned) [Compound 207]
IC50 [1]: < 0.1 µM | IC50 [2]: > 20 µM | IC50 [3]: > 20 µM

Cc1cc(-c2cc(Cl)ccc2OCCn2c(C)nc3c(c2=O)CC(N(C)C2(c4ccc(F)cc4)CC2)CC3)c2scc(C(=O)NS(C)(=O)=O)c2n1 (stereo not drawn) [Compound 274]
IC50 [1]: 0.1 to 0.5 µM | IC50 [4]: 1 to 5 µM | IC50 [2]: 5 to 20 µM

Cc1nc2c(c(=O)n1CC#Cc1ccc(Cl)cc1-c1ccnc3c(C(=O)O)csc13)CC(N(C)C1CCN(CC(F)(F)F)CC1)CC2 (stereo not drawn) [Compound 275]
IC50 [1]: < 0.1 µM | IC50 [4]: < 1 µM | IC50 [2]: < 5 µM

Cc1cc(-c2cc(Cl)ccc2OCCn2c(C)nc3c(c2=O)CC(N(C)C2CCN(CC(F)(F)F)CC2)CC3)c2scc(C(=O)O)c2n1 (stereo not drawn) [Compound 276]
IC50 [1]: < 0.1 µM | IC50 [4]: < 1 µM | IC50 [2]: < 5 µM

Cc1cc(-c2cc(Cl)ccc2OCCn2c(C)nc3c(c2=O)CC(N(C)C2CC2)CC3)c2c(n1)c(C(=O)O)cn2C (stereo not drawn) [Compound 277]
IC50 [1]: 0.5 to 5 µM | IC50 [4]: > 5 µM | IC50 [2]: > 20 µM

Cc1cc(-c2cc(Cl)ccc2OCCn2c(C)nc3c(c2=O)CC(N2CCN(CC(F)(F)F)CC2)CC3)c2scc(C(=O)O)c2n1 (stereo not drawn) [Compound 278]
IC50 [1]: < 0.1 µM | IC50 [4]: < 1 µM | IC50 [2]: < 5 µM

Cc1cc(-c2cc(Cl)ccc2OCCn2c(C)nc3c(c2=O)CC(N2CC(F)(F)C4(CC4)C2)CC3)c2scc(C(=O)O)c2n1 (stereo not drawn) [Compound 279]
IC50 [1]: < 0.1 µM | IC50 [4]: < 1 µM | IC50 [2]: < 5 µM

Cc1cc(-c2cc(Cl)ccc2OCCn2c(C)nc3c(c2=O)CC(N(C)C24CC(C)(C2)C4(F)F)CC3)c2scc(C(=O)NS(C)(=O)=O)c2n1 (stereo not drawn) [Compound 288]
IC50 [1]: < 0.1 µM | IC50 [4]: 1 to 5 µM | IC50 [2]: 5 to 20 µM

Cc1nc2c(c(=O)n1CC#Cc1ccc(Cl)cc1-c1ccnc3c(C(=O)O)csc13)CC(N(C)C1CC1)CC2 (stereo not drawn) [Compound 290]
IC50 [1]: < 0.1 µM | IC50 [4]: < 1 µM | IC50 [2]: < 5 µM

Cc1cc(-c2cc(Cl)ccc2OCCn2c(C)nc3c(c2=O)CC(N(C2CCC2)C2CC2)CC3)c2scc(C(=O)NS(C)(=O)=O)c2n1 (stereo not drawn) [Compound 317]
IC50 [1]: < 0.1 µM | IC50 [4]: < 1 µM | IC50 [2]: < 5 µM

Cc1cc(-c2cc(Cl)ccc2OCCn2c(C)nc3c(c2=O)CC(N(C)C24CC(C)(C2)C4(F)F)CC3)c2scc(C(=O)O)c2n1 (stereo not drawn) [Compound 318]
IC50 [1]: < 0.1 µM | IC50 [4]: 1 to 5 µM | IC50 [2]: 5 to 20 µM

Cc1nc2c(c(=O)n1CC#Cc1ccc(Cl)cc1-c1ccnc3c(C(=O)NS(C)(=O)=O)csc13)CC(N1CC(F)C1)CC2 (stereo not drawn) [Compound 325]
IC50 [1]: < 0.1 µM | IC50 [4]: < 1 µM | IC50 [2]: < 5 µM

COC(=O)c1csc2c(-c3cc(Cl)ccc3OCCn3c(C)nc4c(c3=O)CC(N(C3CC3)C3CC3)CC4)cc(C)nc12 (stereo not drawn) [Compound 339]
IC50 [1]: 0.5 to 5 µM | IC50 [4]: > 5 µM | IC50 [2]: 5 to 20 µM

Cc1nc2c(c(=O)n1CC#Cc1ccc(Cl)cc1-c1ccnc3c(C(=O)O)csc13)CC(N(C)C)CC2 (stereo not drawn) [Compound 350]
IC50 [1]: 0.5 to 5 µM | IC50 [4]: > 5 µM | IC50 [2]: > 20 µM

Cc1nc2c(c(=O)n1CC#Cc1ccc(Cl)cc1-c1ccnc3c(C(=O)O)csc13)CC(N(C)Cc1ccncc1)CC2 (stereo not drawn) [Compound 351]
IC50 [1]: < 0.1 µM | IC50 [4]: < 1 µM | IC50 [2]: < 5 µM

Cc1cc(-c2cc(Cl)ccc2OCCn2c(C)nc3c(c2=O)CC(N(C2CC2)C2CC2)CC3)c2scc(C(=O)O)c2n1 (stereo not drawn) [Compound 352]
IC50 [1]: < 0.1 µM | IC50 [4]: < 1 µM | IC50 [2]: < 5 µM

COC(=O)c1csc2c(-c3cc(Cl)ccc3OCCn3c(C)nc4c(c3=O)CC(N(CC(F)(F)F)C3CC3)CC4)cc(C)nc12 (stereo not drawn) [Compound 353]
IC50 [1]: 0.5 to 5 µM | IC50 [4]: > 5 µM | IC50 [2]: > 20 µM

Cc1nc2c(c(=O)n1CC#Cc1ccc(Cl)cc1-c1ccnc3c(C(=O)O)csc13)CC(N1CC(F)C1)CC2 (stereo not drawn) [Compound 355]
IC50 [1]: < 0.1 µM | IC50 [4]: < 1 µM | IC50 [2]: 5 to 20 µM

Cc1cc(-c2cc(Cl)ccc2OCCn2c(C)nc3c(c2=O)CC(N2CC(F)C2)CC3)c2scc(C(=O)O)c2n1 (stereo not drawn) [Compound 356]
IC50 [1]: < 0.1 µM | IC50 [4]: < 1 µM | IC50 [2]: < 5 µM

Cc1nc2c(c(=O)n1CC#Cc1ccc(Cl)cc1-c1ccnc3c(C(=O)O)csc13)CC(N1CCCCC1)CC2 (stereo not drawn) [Compound 357]
IC50 [1]: < 0.1 µM | IC50 [4]: < 1 µM | IC50 [2]: < 5 µM

COC(=O)c1csc2c(-c3cc(Cl)ccc3OCCn3c(C)nc4c(c3=O)CC(N(C)C3CC3)CC4)cc(C)nc12 (stereo not drawn) [Compound 358]
IC50 [1]: 0.5 to 5 µM | IC50 [4]: 1 to 5 µM | IC50 [2]: 5 to 20 µM

— US20240246918A1, “COMPOUNDS AND COMPOSITIONS AS EIF4E INHIBITORS AND THE USES THEREOF” (Ribometrix, Inc., priority 2022, published 2024)
